Assay [1] concerns the target PLK1 (Homo sapiens, UniProt P53350). Put plainly: in vitro enzymatic inhibitory activity, PLK1 kinase, 10-dose IC50 mode. The class given is biochemical. The settings on record: 10 μM ATP. The protocol:
(§1) Compounds were tested against two kinases.
(§2) Data includes raw data, % Enzyme activity (relative to DMSO controls) and curve fits.

The target in assay [2] is T1, WEE1 (Homo sapiens, UniProt P30291).
T1 construct: Drug treated cells are fixed and stained with propidium iodide (PI); endogenous in cells
Put plainly: in vitro enzymatic inhibitory activity, WEE1 kinase, 10-dose IC50 mode. In kind it is biochemical. The settings on record: 10 μM ATP. The protocol: as §1, §2

Assay [3] deals with T1, WEE1. Put plainly: Guava flow cytometry cell cycle assay (DNA content per cell, propidium iodide). The class given is cell-based. The conditions noted are these: for WEE1 Guava MEC Guava MEC: single agent, unit assumed; for WEE1 Guava MEC with 20 nM GEM: in µM (unit assumed). The source says:
In this example, compounds described herein were subject to an assay that detects changes the phases of the cell cycle upon drug treatment, permitting the identification of drugs that affect cell proliferation in a specific manner. For example, problematic DNA replication causes the percentage of cells in S phase to increase. Thus, quantification of cells in S phase permits identification of drugs that cause defects in DNA replication. Similarly, drugs that selectively defects in progression through G2/M can also be identified. Moreover, synergy between assayed drugs and known cell cycle regulators can be determined, as exemplified by the effect of ATR inhibition when combined with agents that slow DNA replication, which causes replication fork collapse into DSBs and complete loss of DNA synthesis. Two novel drugs can also be combined to quantify synergistic effects on specific cell cycle phases.
The assay operates by the quantification of DNA content per cell by flow cytometry. Cells are assessed for effects on cell cycle using a Guava EasyCyte™ flow cytometer (Austin, TX). Drug treated cells are fixed and stained with propidium iodide (PI) and resuspended in phosphate-buffered saline containing the PI staining buffer. During flow cytometry, PI is excited at 528 nm and is detected in a 610/20 bandpass. Readout of the […] is optical density of DNA-staining dye. The assay generates a histogram showing count of cells by amount of DNA, which is an indicator of place in the cell cycle. This rapid assay detects relative changes in the cell cycle upon drug treatment upon comparison vehicle-treated and single-agent controls for detection of combinatorial interactions. See, Table 4.
In general terms: A flow cytometer gives signals particle by particle.

T1 sequence (P30291 whole entry): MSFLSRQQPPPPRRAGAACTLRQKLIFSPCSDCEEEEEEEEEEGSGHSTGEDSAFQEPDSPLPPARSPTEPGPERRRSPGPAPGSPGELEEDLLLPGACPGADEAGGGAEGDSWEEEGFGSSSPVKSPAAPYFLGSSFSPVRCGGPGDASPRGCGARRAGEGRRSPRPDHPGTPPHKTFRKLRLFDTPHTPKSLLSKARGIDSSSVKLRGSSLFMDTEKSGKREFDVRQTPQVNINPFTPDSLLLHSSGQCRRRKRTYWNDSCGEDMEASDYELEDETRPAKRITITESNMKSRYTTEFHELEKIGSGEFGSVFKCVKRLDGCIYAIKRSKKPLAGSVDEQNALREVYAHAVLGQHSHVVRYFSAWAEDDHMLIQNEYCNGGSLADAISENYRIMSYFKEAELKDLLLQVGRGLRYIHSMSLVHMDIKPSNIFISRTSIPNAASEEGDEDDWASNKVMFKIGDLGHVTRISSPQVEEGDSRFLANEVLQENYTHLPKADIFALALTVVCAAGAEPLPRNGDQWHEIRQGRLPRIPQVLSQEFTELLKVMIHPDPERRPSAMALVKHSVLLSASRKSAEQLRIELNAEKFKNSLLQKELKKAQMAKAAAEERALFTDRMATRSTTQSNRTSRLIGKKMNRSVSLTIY
PLK1, sequence (P53350 whole entry, species assumed): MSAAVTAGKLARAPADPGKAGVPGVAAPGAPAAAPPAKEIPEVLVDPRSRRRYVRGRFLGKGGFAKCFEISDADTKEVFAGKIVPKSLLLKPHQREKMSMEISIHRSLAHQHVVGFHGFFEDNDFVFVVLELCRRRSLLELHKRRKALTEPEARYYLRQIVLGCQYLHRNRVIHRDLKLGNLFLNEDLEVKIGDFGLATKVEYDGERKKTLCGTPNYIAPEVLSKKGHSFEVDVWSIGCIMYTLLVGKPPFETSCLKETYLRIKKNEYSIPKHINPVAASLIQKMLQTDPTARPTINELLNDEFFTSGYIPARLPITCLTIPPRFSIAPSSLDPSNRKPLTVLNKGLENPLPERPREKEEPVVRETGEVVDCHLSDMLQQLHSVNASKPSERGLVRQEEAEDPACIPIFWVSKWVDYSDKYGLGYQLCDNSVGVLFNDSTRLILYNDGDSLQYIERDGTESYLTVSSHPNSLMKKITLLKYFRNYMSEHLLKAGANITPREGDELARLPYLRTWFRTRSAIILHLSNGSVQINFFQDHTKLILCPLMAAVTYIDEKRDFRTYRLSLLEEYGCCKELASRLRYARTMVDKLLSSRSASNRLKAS

A word on the IC50: it is the point on the concentration scale where inhibition reaches its midpoint. Molecule `C=CCn1c(=O)c2cnc(Nc3ccc(N4CCN(C)CC4)cc3)nc2n1-c1cccc(C(C)(C)O)n1` [AZD1775] came in with a half-inhibitory concentration (IC50) in assay [1] of 159 nM.
In assay [2], `CN1CCc2ccc(Nc3ncc4c(=O)n(-c5c(Cl)cccc5Cl)cc(Br)c4n3)cc2C1` [Compound P11, 8-bromo-6-(2,6-dichlorophenyl)-2-[(2-methyl-3,4-dihydro-1H-isoquinolin-7-yl)amino]pyrido[4,3-d]pyrimidin-5-one] gave an IC50 of 31 nM. Moreover, in assay [3], the WEE1 Guava MEC Guava MEC came out at 0.313 µM and the “WEE1 Guava MEC with 20 nM GEM” value is recorded as 0.156.
Turning to `O=c1c2cnc(Nc3ccc4c(c3)CNCC4)nc2c(Br)cn1-c1c(Cl)cccc1Cl` [Compound P10, 8-bromo-6-(2,6-dichlorophenyl)-2-(1,2,3,4-tetrahydroisoquinolin-7-ylamino)pyrido[4,3-d]pyrimidin-5-one], in assay [2], half-maximal inhibition (IC50) required 27 nM. Also, in assay [3], the WEE1 Guava MEC Guava MEC worked out at 0.313 µM and the “WEE1 Guava MEC with 20 nM GEM” value turned out to be 0.156.
